Reference: US20200022967A1, “Use of 2-carboxamide cycloamino urea derivatives in the treatment of EGFR dependent diseases or diseases that have acquired resistance to agents that target EGFR family members” (Novartis AG, priority 2010, published 2020)

Experiments:
[1] = Body weight loss in HBCx-5 xenograft study (Example 5); conditions: capecitabine single agent; significant and transient
Experimental: Experiments were performed in female HSD: athymic nude-Foxn1nu mice approximately 8-10 weeks of age and weighing approximately 19-25 grams. The mice were allowed to acclimate with access to food and water ad libitum for 6 days prior to the study. When body weight loss reaches 15% compared to the first day of treatment, DietGel® was provided to the animals.
The mice were divided into five groups each comprising ten mice. Treatments were initiated 34 days post-implantation of the HBCx-5 xenograft tumor. […] For xenograft implantation, the mice were anesthetized with 100 mg/kg ketamine hydrochloride and 10 mg/kg xylazine. Using asceptic technique, the mice were grafted in interscapular with 3 mm on 3 mm tumor fragment. […] Tumors were measured with calipers three times per week at the start of dosing. Tumors were calculated using the formula: =width^2×length/2. Tumor size and body weight were measured three times per week during the treatment period. The planned endpoints for the experiment were a treatment phase of six weeks and no follow-up phase.
Antitumor activity is expressed as T/C % (mean change of tumor volume of treated animals/mean change of tumor volume of control animals)×100. Tumor volume and relative body weight were used for statistical analysis. Group comparisons were performed using a Mann Whitney non parametric test between treated group and control group.

[2] = test system: HBCx-5 xenograft tumor; assay: HBCx-5 breast cancer xenograft, antitumor activity (Example 5); type: in vivo, mice; conditions: capecitabine 40 mg/kg single agent p.o., five times per week, two cycles; p<0.001
Experimental: Compound A was suspended at mg/ml in 0.5% methylcellulose (Sigma Aldrich, St. Louis, Mo.). It was homogenized by stirring vortexing and sonication. The suspension was stored at 4° C. for 7 days protected from light. […] Stock solution at 21 mg/ml was diluted just before administration at 1 mg/ml with sterile water for injection. Capecitabine (Xeloda®, Roche) at […] was kept at 4° C. protected from light. Capecitabine pellets were crushed and suspended in NaCl 0.9%.
Dose was body weight adjusted at each injection.
Capecitabine was administered by oral gavage (p.o.) at […], five times per week for two weeks (i.e., five consecutive dosing days/week). After a one week rest, a second treatment cycle was performed.

[3] = Body weight nadir and deaths in NCI-N87 lapatinib study (Example 6)
Experimental: Treatments started eight days post tumor cell implantation and lasted for 59 consecutive days or until tumor volume=1000 mm^3. […] For the b.i.d. dosing schedule, the first dose was given p.m. on Day 1 and last dose a.m. on Day 22. […] Body weights were recorded on Days 1-5, on each treatment day (except weekends), and twice weekly thereafter until end of the study.

[4] = test system: NCI-N87 tumors; assay: NCI-N87 xenograft in CB17 SCID mice, Compound A alone and with lapatinib (Example 6); type: in vivo; conditions: for Median TTE: control 26.2, vs G1 ***; for Mean Tumor Volume (no. animals, n) Day 59: n=1
Experimental: The NCI-N87 cells were harvested with 5× trypsin. Eight days after tumor implantation (on Day 1 of the study), mice with an individual tumor volume of 88-196 mm^3 were sorted into 10 groups of ten mice with a group mean tumor volume of 143-149 mm^3.
Where applicable, data is presented as mean±SEM. Each animal was euthanized when its neoplasm reached the endpoint volume (1000 mm^3), or on the last day of the study (Day 59). Time to endpoint (TTE) is calculated by the equation: TTE=(log10(endpoint volume)−b)/m, where TTE is expressed in days, endpoint volume is in mm3, b is the intercept and m is the slope of the line obtained by linear regression of a log-transformed tumor growth data set. Treatment efficacy was determined from Tumor Growth Delay (TGD), which was defined as the increase in the median time to endpoint (TTE) for a treatment group compared to the control group (TGD=T−C), expressed in days, or as a percentage of the median TTE of the control group (% TGD=((T−C)/C)×100), wherein T=median TTE for a treatment group and C=median TTE for the designated control group.
Statistical and graphical analyses was performed with Prism 3.03 (GraphPad) for Windows. For all tests, the level of significance of differences was done using ANOVA, with Bartlett's test; and a post-hoc Dunnett's multiple comparison test compared the mean change for each drub-treated group to the mean for Group 1. Survival was analyzed by the Kaplan-Meier method. The logrank test was employed to analyze the significance of the difference between the overall survival experiences of two groups, based on time to endpoint (TTE) values. The two-tailed statistical analyses were conducted at P=0.05. Prism summarizes test results as not significant (ns) at P>0.05, significant (symbolized by “*”) at 0.01<P<0.05, very significant (symbolized by “**”) at 0.001<P<0.01, and extremely significant (symbolized by “***”) at P<0.001.

[5] = Group 4 (10 animals): lapatinib 50 mg/kg p.o. b.i.d.
[6] = Group 5 (10 animals): lapatinib 100 mg/kg p.o. once daily
[7] = Group 6: lapatinib 150 mg/kg p.o. once daily
[8] = Group 4: lapatinib 50 mg/kg p.o. b.i.d.
[9] = Group 5: lapatinib 100 mg/kg p.o. once daily
[10] = Group 6 (9 animals): lapatinib 150 mg/kg p.o. once daily

## CCCCCOC(=O)Nc1nc(=O)n([C@@H]2O[C@H](C)[C@@H](O)[C@H]2O)cc1F [Capecitabine, reference compound]
[1]
  body weight loss: 9.1%
[2]
  T/C: 9.03%

## CS(=O)(=O)CCNCc1ccc(-c2ccc3ncnc(Nc4ccc(OCc5cccc(F)c5)c(Cl)c4)c3c2)o1 [lapatinib]
[3]; [5]
  Deaths (TR/NTR): 0
[3]; [6]
  Deaths (TR/NTR): 0
[3]; [7]
  Deaths NTR = non-treatment related: NTR: 1
  Deaths TR = treatment-related: TR: 0
[4]; [5]
  Regressions CR: CR: 0
  Regressions PR: PR: 0,
[4]; Group 4 (10 animals): lapatinib 50 mg/kg p.o. b.i.d. for 21 days
  Median TTE: 47.7 days
[4]; [8]
  % TGD: 66%
  Mean Tumor Volume (no. animals, n) Day 59: 608 (1)
[4]; [6]
  Regressions CR: CR: 0
  Regressions PR: PR: 0,
[4]; [9]
  % TGD: 82%
  T-C: 16.4 days
  Mean Tumor Volume (no. animals, n) Day 59: 750 (1)
[4]; [10]
  Regressions CR: CR: 0
  Regressions PR: PR: 1,
[4]; Group 6 (9 animals): lapatinib 150 mg/kg p.o. once daily for 21 days
  Median TTE: 50.6 days
[4]; [7]
  % TGD: 63%
  T-C: 24.4 days
